The results in this text go back to patent US12692262B2, “Substituted ureas as orexin receptor agonists” (Merck Sharp & Dohme LLC, priority 2020, dated 2026).

The test addresses T1, human OX2R (Homo sapiens, UniProt O43614).
T1 construct: expressed in transfected cells; host or cells: CHO (Chinese hamster ovary) cells grown under G418 selection
T1 sequence (O43614 1-444): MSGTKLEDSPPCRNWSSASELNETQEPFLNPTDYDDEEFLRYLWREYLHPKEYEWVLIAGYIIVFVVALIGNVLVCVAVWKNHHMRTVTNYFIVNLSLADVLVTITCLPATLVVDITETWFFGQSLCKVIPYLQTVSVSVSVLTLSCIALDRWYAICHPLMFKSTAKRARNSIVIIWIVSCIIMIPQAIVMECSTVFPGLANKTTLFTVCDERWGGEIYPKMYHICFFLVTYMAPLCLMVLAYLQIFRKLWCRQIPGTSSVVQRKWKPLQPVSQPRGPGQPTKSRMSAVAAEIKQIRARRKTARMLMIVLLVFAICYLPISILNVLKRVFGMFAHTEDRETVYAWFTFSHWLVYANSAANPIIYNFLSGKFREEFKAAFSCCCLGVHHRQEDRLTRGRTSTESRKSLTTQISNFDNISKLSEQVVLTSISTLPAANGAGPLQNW
Nature of the test: IPOne (IP-1 accumulation) assay in CHO cells expressing human OX2R. It counts as cell-based. Conditions: for EC50: CHO cells expressing human OX2R, IP-One assay, 2 h incubation, four parameter logistic fit, read-out: OX2R Potency, EC50; for % of maximum agonist effect (relative to Orexin A): percent effect vs mean max effect of a reference compound at 1 uM (100% activity vs Orexin A), human OX2R. The gist of the method:
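Agonist EC50 values come from the inflection point of four-parameter logistic curves. Read-out is IP-1 accumulation detected with lysis buffer plus D2 and AB-cryptate reagents (HTRF), in CHO cells engineered to express human OX2R.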

For orientation: EC50 means the concentration at which the effect is half-maximal. With `CC[C@H](CCC(F)(F)F)NC(=O)N(C(C)C)[C@H](C)c1cccc(-c2cn3ccnc3c(OC)n2)c1` [Example 2-60, 1-isopropyl-1-((R)-1-(3-(8-methoxyimidazo[1,2-a]pyrazin-6-yl)phenyl)ethyl)-3-((R)-6,6,6-trifluorohexan-3-yl)urea], the EC50 amounted to 64.4 nM and the “% of maximum agonist effect (relative to Orexin A)” value is listed as 97.4%.

On to `COc1nc(-c2cccc(C(C)N(CC(F)F)C(=O)N[C@@H](CCC(F)(F)F)C(F)(F)F)c2)cn2ccnc12` (stereo partly drawn) [Example 2-61, 1-(2,2-difluoroethyl)-3-((S)-1,1,1,5,5,5-hexafluoropentan-2-yl)-1-(1-(3-(8-methoxyimidazo[1,2-a]pyrazin-6-yl)phenyl)ethyl)urea], for which the EC50 was 5.8 nM and the “% of maximum agonist effect (relative to Orexin A)” value was determined as 99.5%.

As to `CCN(C(=O)N[C@@H](C)C(F)(F)F)C(c1cnc(OC)c(-c2cn3ccnc3c(OC)n2)c1)C(F)(F)F` (stereo partly drawn) [Example 2-62, 1-ethyl-1-(2,2,2-trifluoro-1-(6-methoxy-5-(8-methoxyimidazo[1,2-a]pyrazin-6-yl)pyridin-3-yl)ethyl)-3-((S)-1,1,1-trifluoropropan-2-yl)urea], the EC50 turned out to be 13.1 nM and the “% of maximum agonist effect (relative to Orexin A)” value turned out to be 95.6%.

As for `CCN(C(=O)N[C@@H](CCC(F)(F)F)C(F)(F)F)C(C)c1ccnc(-c2cn3ccnc3c(OC)n2)n1` (stereo partly drawn) [Example 2-63, 1-ethyl-3-((S)-1,1,1,5,5,5-hexafluoropentan-2-yl)-1-(1-(2-(8-methoxyimidazo[1,2-a]pyrazin-6-yl)pyrimidin-4-yl)ethyl)urea], the EC50 was determined as 1060 nM and the “% of maximum agonist effect (relative to Orexin A)” value is 96.2%.

Regarding `CCN(C(=O)N[C@@H](CCC(F)(F)F)C(F)(F)F)C(C)c1cnnc(-c2cn3ccnc3c(OC)n2)c1` (stereo partly drawn) [Example 2-64, 1-ethyl-3-((S)-1,1,1,5,5,5-hexafluoropentan-2-yl)-1-(1-(6-(8-methoxyimidazo[1,2-a]pyrazin-6-yl)pyridazin-4-yl)ethyl)urea], the EC50 came out at 2870 nM and the “% of maximum agonist effect (relative to Orexin A)” value was found to be 81.2%.

Regarding `C#CC(CCC(F)(F)F)NC(=O)N(CC)[C@H](C)c1cccc(-c2cn3ccnc3c(OC)n2)c1` (stereo partly drawn) [Example 2-65, 1-ethyl-1-((R)-1-(3-(8-methoxyimidazo[1,2-a]pyrazin-6-yl)phenyl)ethyl)-3-(6,6,6-trifluorohex-1-yn-3-yl)urea], the EC50 came out at 4 nM and the “% of maximum agonist effect (relative to Orexin A)” value is 100.1%.

With `CCN(C(=O)NC(c1cccc(F)c1)C(F)(F)F)[C@@H](c1cccc(-c2cn3ccnc3c(OC)n2)c1)C(F)(F)F` (stereo partly drawn) [Example 2-66, 1-ethyl-1-((S)-2,2,2-trifluoro-1-(3-(8-methoxyimidazo[1,2-a]pyrazin-6-yl)phenyl)ethyl)-3-(2,2,2-trifluoro-1-(3-fluorophenyl)ethyl)urea], the EC50 is 5.2 nM and the “% of maximum agonist effect (relative to Orexin A)” value was 97.2%.

As to `CCN(C(=O)NC1CCC(C(F)(F)F)N(C)C1)[C@@H](c1cccc(-c2cn3ccnc3c(OC)n2)c1)C(F)(F)F` (stereo partly drawn) [Example 2-67, 1-ethyl-3-(1-methyl-6-(trifluoromethyl)piperidin-3-yl)-1-((S)-2,2,2-trifluoro-1-(3-(8-methoxyimidazo[1,2-a]pyrazin-6-yl)phenyl)ethyl)urea], the EC50 was 7.7 nM and the “% of maximum agonist effect (relative to Orexin A)” value was determined as 98.7%.

In the case of `CCNC(=O)N(CC)[C@H](C)c1cccc(-c2cc(OC)c3nccn3c2)c1` [Example 2-68, (R)-1,3-diethyl-1-(1-(3-(8-methoxyimidazo[1,2-a]pyridin-6-yl)phenyl)ethyl)urea], the EC50 stood at 179 nM and the “% of maximum agonist effect (relative to Orexin A)” value was 83.3%.

On to `CCN(C(=O)N[C@@H](CCCF)C(F)(F)F)[C@@H](c1cc(-c2cn3cc(C)nc3c(OC)n2)c(OC)cn1)C(F)(F)F` [Example 3-2, 1-ethyl-3-((S)-1,1,1,5-tetrafluoropentan-2-yl)-1-((S)-2,2,2-trifluoro-1-(5-methoxy-4-(8-methoxy-2-methylimidazo[1,2-a]pyrazin-6-yl)pyridin-2-yl)ethyl)urea], for which the half-maximal effective concentration (EC50) is 3.3 nM and the “% of maximum agonist effect (relative to Orexin A)” value was 102.4%.

Regarding `CCN(C(=O)N[C@@H](CCC(F)F)C(F)(F)F)[C@@H](c1cc(-c2cn3cc(C)nc3c(OC)n2)c(OC)cn1)C(F)(F)F` [Example 3-3, 1-ethyl-3-((S)-1,1,1,5,5-pentafluoropentan-2-yl)-1-((S)-2,2,2-trifluoro-1-(5-methoxy-4-(8-methoxy-2-methylimidazo[1,2-a]pyrazin-6-yl)pyridin-2-yl)ethyl)urea], the EC50 is 3.6 nM and the “% of maximum agonist effect (relative to Orexin A)” value turned out to be 101.6%.

Consider `CCN(C(=O)N[C@@H](CCC(F)=C(F)F)C(F)(F)F)[C@@H](c1cc(-c2cn3cc(C)nc3c(OC)n2)c(OC)cn1)C(F)(F)F` [Example 3-4, 1-ethyl-3-((S)-1,1,1,5,6,6-hexafluorohex-5-en-2-yl)-1-((S)-2,2,2-trifluoro-1-(5-methoxy-4-(8-methoxy-2-methylimidazo[1,2-a]pyrazin-6-yl)pyridin-2-yl)ethyl)urea], for which the EC50 stood at 27.8 nM and the “% of maximum agonist effect (relative to Orexin A)” value stood at 100.5%.

For the compound `CCN(C(=O)N[C@@H](CC1CC1)C(F)(F)F)[C@@H](c1cc(-c2cn3cc(C)nc3c(OC)n2)c(OC)cn1)C(F)(F)F` [Example 3-5, 3-((S)-3-cyclopropyl-1,1,1-trifluoropropan-2-yl)-1-ethyl-1-((S)-2,2,2-trifluoro-1-(5-methoxy-4-(8-methoxy-2-methylimidazo[1,2-a]pyrazin-6-yl)pyridin-2-yl)ethyl)urea], the EC50 was found to be 40.5 nM and the “% of maximum agonist effect (relative to Orexin A)” value is reported as 99.3%.

In the case of `CCN(C(=O)NC(CCC1CC1)C(F)(F)F)[C@H](C)c1cccc(-c2cn3ccnc3c(OC)n2)c1` (stereo partly drawn) [Example 3-6, 3-(4-cyclopropyl-1,1,1-trifluorobutan-2-yl)-1-ethyl-1-((R)-1-(3-(8-methoxyimidazo[1,2-a]pyrazin-6-yl)phenyl)ethyl)urea], the EC50 came to 2.6 nM and the “% of maximum agonist effect (relative to Orexin A)” value stood at 99.7%.

As for `C#CCCCC(NC(=O)N(CC)[C@H](C)c1cccc(-c2cn3ccnc3c(OC)n2)c1)C(F)(F)F` (stereo partly drawn) [Example 3-7, 1-ethyl-1-((R)-1-(3-(8-methoxyimidazo[1,2-a]pyrazin-6-yl)phenyl)ethyl)-3-(1,1,1-trifluorohept-6-yn-2-yl)urea], the EC50 amounted to 4.4 nM and the “% of maximum agonist effect (relative to Orexin A)” value amounted to 100.5%.

As for `CCN(C(=O)N[C@@H](CCC(F)(F)F)C(F)F)[C@@H](c1cc(-c2cn3cc(C)nc3c(OC)n2)c(OC)cn1)C(F)(F)F` [Example 4-1, 1-ethyl-3-((S)-1,1,5,5,5-pentafluoropentan-2-yl)-1-((S)-2,2,2-trifluoro-1-(5-methoxy-4-(8-methoxy-2-methylimidazo[1,2-a]pyrazin-6-yl)pyridin-2-yl)ethyl)urea], the EC50 came to 4.8 nM and the “% of maximum agonist effect (relative to Orexin A)” value came to 101.6%.

On to `CCN(C(=O)N[C@@H](CCC(F)F)C(F)F)[C@@H](c1cc(-c2cn3cc(C)nc3c(OC)n2)c(OC)cn1)C(F)(F)F` [Example 4-2, 1-ethyl-3-((S)-1,1,5,5-tetrafluoropentan-2-yl)-1-((S)-2,2,2-trifluoro-1-(5-methoxy-4-(8-methoxy-2-methylimidazo[1,2-a]pyrazin-6-yl)pyridin-2-yl)ethyl)urea], for which the EC50 came out at 5.9 nM and the “% of maximum agonist effect (relative to Orexin A)” value came to 99.9%.
